Assays:
[1] = test system: LNCaP; test: Antiproliferative activity against androgen-positive human LNCaP cells assessed as cell growth inhibition measured after 72 hrs by SRB assay; assay type: functional, cell-based
[2] = molecular target: T1, Androgen receptor (Homo sapiens) (UniProt P10275); test: Binding affinity to androgen receptor LBD (unknown origin) at 10 uM incubated for 4 hrs under dark by fluorescence polarization based binding assay relative to R1881
T1 sequence (whole entry): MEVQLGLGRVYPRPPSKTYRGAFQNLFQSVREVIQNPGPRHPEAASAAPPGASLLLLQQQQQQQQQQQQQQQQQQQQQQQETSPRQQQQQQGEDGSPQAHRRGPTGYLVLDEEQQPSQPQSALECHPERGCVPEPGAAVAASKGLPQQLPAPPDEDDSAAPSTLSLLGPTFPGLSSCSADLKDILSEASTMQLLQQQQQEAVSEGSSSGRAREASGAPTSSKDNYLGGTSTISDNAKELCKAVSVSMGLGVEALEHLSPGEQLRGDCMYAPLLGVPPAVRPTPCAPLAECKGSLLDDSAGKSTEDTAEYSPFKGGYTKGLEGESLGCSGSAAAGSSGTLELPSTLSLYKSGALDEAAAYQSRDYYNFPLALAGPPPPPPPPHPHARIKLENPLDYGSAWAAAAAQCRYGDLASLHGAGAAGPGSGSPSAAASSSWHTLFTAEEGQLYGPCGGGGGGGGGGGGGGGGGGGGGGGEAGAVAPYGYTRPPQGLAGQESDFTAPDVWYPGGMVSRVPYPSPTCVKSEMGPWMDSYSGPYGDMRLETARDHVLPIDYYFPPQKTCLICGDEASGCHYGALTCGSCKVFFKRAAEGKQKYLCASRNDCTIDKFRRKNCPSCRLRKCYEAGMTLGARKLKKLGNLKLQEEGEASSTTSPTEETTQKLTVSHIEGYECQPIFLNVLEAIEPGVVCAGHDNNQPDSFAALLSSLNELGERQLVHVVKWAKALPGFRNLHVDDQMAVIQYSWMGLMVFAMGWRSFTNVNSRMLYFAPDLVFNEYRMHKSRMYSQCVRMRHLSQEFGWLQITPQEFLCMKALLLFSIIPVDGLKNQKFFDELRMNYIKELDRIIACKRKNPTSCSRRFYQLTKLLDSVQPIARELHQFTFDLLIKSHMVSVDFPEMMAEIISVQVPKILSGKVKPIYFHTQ

[3] = test system: LNCaP C4-2B; test: Antiproliferative activity against androgen-sensitive positive human LNCaP C4-2B cells assessed as cell growth inhibition measured after 72 hrs by SRB assay; assay type: functional, cell-based
[4] = test system: PC-3; test: Antiproliferative activity against androgen-negative human PC-3 cells assessed as cell growth inhibition measured after 72 hrs by SRB assay; assay type: functional, cell-based; settings: PC-3, 72 h
[5] = Cytotoxicity against androgen-negative human WPMY-1 cells assessed as cell growth inhibition measured after 72 hrs by SRB assay; assay type: cell-based; settings: WPMY-1, 72 h

| SMILES | IC50 [1] | Activity [2] | IC50 [3] | IC50 [4] | IC50 [5] |
| --- | --- | --- | --- | --- | --- |
| CC1(C)C(=O)N(c2ccc(C#N)c(C(F)(F)F)c2)C(=O)N1Cc1ccc(-n2cc(COCCOCCOCCOC(=O)CC34CC5CC(CC(C5)C3)C4)nn2)cc1 | > 80 µM | 20.1% | > 80 µM | > 80 µM | > 80 µM |
| CC1(C)C(=O)N(c2ccc(C#N)c(C(F)(F)F)c2)C(=S)N1Cc1ccc(-n2cc(COCCOCCOC(=O)CC34CC5CC(CC(C5)C3)C4)nn2)cc1 | > 80 µM | 35.8% | > 80 µM | > 80 µM | > 80 µM |
| CC1(C)C(=O)N(c2ccc(C#N)c(C(F)(F)F)c2)C(=O)N1CCCn1cc(COCCOCCOC(=O)CC23CC4CC(CC(C4)C2)C3)nn1 | 7.28 µM | 41.9% | 12.3 µM | > 80 µM | > 80 µM |
| CC1(C)C(=O)N(c2ccc(C#N)c(C(F)(F)F)c2)C(=S)N1Cc1ccc(OCCOCCOC(=O)CC23CC4CC(CC(C4)C2)C3)cc1 | > 80 µM | 34.2% | > 80 µM | > 80 µM | > 80 µM |
| CC1(C)C(=O)N(c2ccc(C#N)c(C(F)(F)F)c2)C(=S)N1CCCn1cc(COCCOCCOCCOCCOC(=O)CC23CC4CC(CC(C4)C2)C3)nn1 | 4.25 µM | 69.3% | 7.64 µM | > 80 µM | > 80 µM |
| CC1(C)C(=O)N(c2ccc(C#N)c(C(F)(F)F)c2)C(=O)N1CCCn1cc(COCCCOC(=O)CC23CC4CC(CC(C4)C2)C3)nn1 | 4.06 µM | 24.3% | 11.2 µM | > 80 µM | > 80 µM |
| CC1(C)C(=O)N(c2ccc(C#N)c(C(F)(F)F)c2)C(=O)N1Cc1cn(CCOCCOCCOC(=O)CC23CC4CC(CC(C4)C2)C3)nn1 | 7.7 µM | 46.7% | 8.34 µM | > 80 µM | > 80 µM |
| CC1(C)C(=O)N(c2ccc(C#N)c(C(F)(F)F)c2)C(=S)N1Cc1cn(CCOCCOC(=O)CC23CC4CC(CC(C4)C2)C3)nn1 | > 80 µM | 22.2% | 17.4 µM | > 80 µM | > 80 µM |
| CC1(C)C(=O)N(c2ccc(C#N)c(C(F)(F)F)c2)C(=O)N1CCCn1cc(COCCOCCOCCOCCOC(=O)CC23CC4CC(CC(C4)C2)C3)nn1 | 9.96 µM | 47% | 11.7 µM | > 80 µM | > 80 µM |
| CC1(C)C(=O)N(c2ccc(C#N)c(C(F)(F)F)c2)C(=S)N1CCCn1cc(COCCOCCOCCOCCOCCOC(=O)CC23CC4CC(CC(C4)C2)C3)nn1 | 6.92 µM | 33.7% | 6.61 µM | > 80 µM | > 80 µM |
| CC1(C)C(=O)N(c2ccc(C#N)c(C(F)(F)F)c2)C(=S)N1Cc1ccc(-n2cc(COCCOCCOCCOCCOC(=O)CC34CC5CC(CC(C5)C3)C4)nn2)cc1 | > 80 µM | 39.9% | > 80 µM | > 80 µM | > 80 µM |
| CC1(C)C(=O)N(c2ccc(C#N)c(C(F)(F)F)c2)C(=O)N1Cc1cn(CCOCCOC(=O)CC23CC4CC(CC(C4)C2)C3)nn1 | > 80 µM | 52.8% | 11.9 µM | > 80 µM | > 80 µM |
| CC1(C)C(=O)N(c2ccc(C#N)c(C(F)(F)F)c2)C(=O)N1Cc1cn(CCCOC(=O)CC23CC4CC(CC(C4)C2)C3)nn1 | > 80 µM | 43.4% | > 80 µM | > 80 µM | > 80 µM |
| CC1(C)C(=O)N(c2ccc(C#N)c(C(F)(F)F)c2)C(=O)N1CCCn1cc(COCCOCCOCCOC(=O)CC23CC4CC(CC(C4)C2)C3)nn1 | 6.66 µM | 33.9% | 9.95 µM | > 80 µM | > 80 µM |
| CC1(C)C(=O)N(c2ccc(C#N)c(C(F)(F)F)c2)C(=O)N1Cc1ccc(OCCOCCOC(=O)CC23CC4CC(CC(C4)C2)C3)cc1 | > 80 µM | 26.3% | > 80 µM | > 80 µM | > 80 µM |
| CC1(C)C(=O)N(c2ccc(C#N)c(C(F)(F)F)c2)C(=S)N1Cc1ccc(OCCCOC(=O)CC23CC4CC(CC(C4)C2)C3)cc1 | > 80 µM | 37.9% | > 80 µM | > 80 µM | > 80 µM |
| CC1(C)C(=O)N(c2ccc(C#N)c(C(F)(F)F)c2)C(=O)N1Cc1ccc(-n2cc(COCCCOC(=O)CC34CC5CC(CC(C5)C3)C4)nn2)cc1 | > 80 µM | 19.1% | > 80 µM | > 80 µM | > 80 µM |
| CC1(C)C(=O)N(c2ccc(C#N)c(C(F)(F)F)c2)C(=S)N1CCCCCCn1cc(COCCOCCOC(=O)CC23CC4CC(CC(C4)C2)C3)nn1 | 33.9 µM | 32.3% | > 80 µM | > 80 µM | > 80 µM |
| CC1(C)C(=O)N(c2ccc(C#N)c(C(F)(F)F)c2)C(=O)N1Cc1cn(CCOCCOCCOCCOC(=O)CC23CC4CC(CC(C4)C2)C3)nn1 | 6.87 µM | 29.8% | 7.76 µM | > 80 µM | > 80 µM |
| CC1(C)C(=O)N(c2ccc(C#N)c(C(F)(F)F)c2)C(=S)N1Cc1cn(CCOCCOCCOCCOC(=O)CC23CC4CC(CC(C4)C2)C3)nn1 | 6.31 µM | 69.1% | 11.2 µM | > 80 µM | > 80 µM |
| CC1(C)C(=O)N(c2ccc(C#N)c(C(F)(F)F)c2)C(=O)N1Cc1ccc(-n2cc(COCCOCCOCCOCCOC(=O)CC34CC5CC(CC(C5)C3)C4)nn2)cc1 | > 80 µM | 51.8% | > 80 µM | > 80 µM | > 80 µM |
| CC1(C)C(=O)N(c2ccc(C#N)c(C(F)(F)F)c2)C(=S)N1CCCn1cc(COCCCOC(=O)CC23CC4CC(CC(C4)C2)C3)nn1 | 6.64 µM | 31.6% | 10.6 µM | > 80 µM | > 80 µM |
| CC1(C)C(=O)N(c2ccc(C#N)c(C(F)(F)F)c2)C(=S)N1Cc1cn(CCOCCOCCOC(=O)CC23CC4CC(CC(C4)C2)C3)nn1 | 9.13 µM | 35.1% | > 80 µM | > 80 µM | > 80 µM |
| CC1(C)C(=O)N(c2ccc(C#N)c(C(F)(F)F)c2)C(=S)N1Cc1cn(CCCOC(=O)CC23CC4CC(CC(C4)C2)C3)nn1 | > 80 µM | 52.8% | > 80 µM | > 80 µM | > 80 µM |
| CC1(C)C(=O)N(c2ccc(C#N)c(C(F)(F)F)c2)C(=S)N1Cc1ccc(OCCOCCOCCOCCOC(=O)CC23CC4CC(CC(C4)C2)C3)cc1 | > 80 µM | 35.8% | > 80 µM | > 80 µM | > 80 µM |
| CC1(C)C(=O)N(c2ccc(C#N)c(C(F)(F)F)c2)C(=S)N1Cc1ccc(-n2cc(COCCCOC(=O)CC34CC5CC(CC(C5)C3)C4)nn2)cc1 | > 80 µM | 26% | > 80 µM | > 80 µM | > 80 µM |
| CC1(C)C(=O)N(c2ccc(C#N)c(C(F)(F)F)c2)C(=S)N1Cc1ccc(-n2cc(COCCOCCOCCOC(=O)CC34CC5CC(CC(C5)C3)C4)nn2)cc1 | > 80 µM | 25.3% | > 80 µM | > 80 µM | > 80 µM |
| CC1(C)C(=O)N(c2ccc(C#N)c(C(F)(F)F)c2)C(=O)N1Cc1ccc(-n2cc(COCCOCCOC(=O)CC34CC5CC(CC(C5)C3)C4)nn2)cc1 | > 80 µM | 36.7% | > 80 µM | > 80 µM | > 80 µM |

Reference: ChEMBL document CHEMBL4706528, “The design, synthesis and anti-tumor mechanism study of new androgen receptor degrader” (Eur J Med Chem, 2020)
